For data set [1] the following is noted: 101.33 kPa, Liquid; for viscosity: Capillary tube (Ostwald / Ubbelohde) method; for mass density: Vibrating tube method.
Data set [2] in a line: refractive index (Na D-line) (dimensionless). The note with it: 101.33 kPa, Liquid, Standard Abbe refractometry.

Numbers after ± are expanded uncertainties.

By viscosity is commonly meant the internal friction of a fluid under shear. As a reminder, the mass density is the mass of a sample divided by its volume. As a reminder, the refractive index is the speed of light in vacuum divided by its phase velocity in the sample. For the molecule `NC1CCCCC1` [cyclohexylamine], the viscosity came out at 2.142 ± 0.046 mPa·s in data set [1] (293.15 K), 1.909 ± 0.041 mPa·s in data set [1] (298.15 K) and 1.699 ± 0.036 mPa·s in data set [1] (303.15 K). In addition, the figures for the mass density in data set [1] (293.15 K), in data set [1] (298.15 K) and in data set [1] (303.15 K) were 867.2 ± 0.24 kg/m3, 862.69 ± 0.24 kg/m3 and 858.12 ± 0.24 kg/m3, respectively. Besides, the values for the refractive index in data set [2] (293.15 K), in data set [2] (298.15 K) and in data set [2] (303.15 K) were 1.45936 ± 0.00037, 1.45694 ± 0.00037 and 1.45427 ± 0.00037, respectively.

As to `CCCCCCCCCCO` [decan-1-ol], the viscosity in data set [1] (293.15 K) came out at 14.52 ± 0.3 mPa·s; in data set [1] (298.15 K), 11.82 ± 0.25 mPa·s; in data set [1] (303.15 K), 9.738 ± 0.2 mPa·s. The mass density is reported as 829.97 ± 0.24 kg/m3 in data set [1] (293.15 K), 826.58 ± 0.24 kg/m3 in data set [1] (298.15 K) and 823.13 ± 0.24 kg/m3 in data set [1] (303.15 K). In addition, the refractive index in data set [2] (293.15 K) turned out to be 1.43728 ± 0.00037; in data set [2] (298.15 K), 1.43531 ± 0.00037; in data set [2] (303.15 K), 1.43345 ± 0.00037.

On to `CCCCCCCO` [heptan-1-ol], for which the results for the viscosity in data set [1] (293.15 K), in data set [1] (298.15 K) and in data set [1] (303.15 K) were 7.106 ± 0.15 mPa·s, 5.966 ± 0.13 mPa·s and 4.841 ± 0.1 mPa·s, respectively. Further, the values for the mass density in data set [1] (293.15 K), in data set [1] (298.15 K) and in data set [1] (303.15 K) were 822.52 ± 0.24 kg/m3, 818.99 ± 0.24 kg/m3 and 815.4 ± 0.24 kg/m3, respectively. The refractive index was determined as 1.42429 ± 0.00037 in data set [2] (293.15 K), 1.42227 ± 0.00037 in data set [2] (298.15 K) and 1.42023 ± 0.00037 in data set [2] (303.15 K).

(Values after the NIST ThermoML archive (doi:10.1016/j.jct.2014.09.005).)
